# Experimental data taken from US12421489B2, “Biological control of plant pathogenic microorganisms” (priority 2016, dated 2025).
# Key:
# Monilinia fructicola = experiment: Cherry inoculation assays 1 and 3: Monilinia fruit rot of ‘Sweet Valentine’ cherries, dip treatment; format: in vivo; conditions: Assay 1, cherries, cumulative after 13 days; Nil 50%; reductions not significant
# Protocol: Fruit-based screening assays were conducted in laboratories at the Plant and Food Research Ruakura Research Centre, Hamilton, New Zealand (PFR). PFR assays focused on dip treatment application of YBCA5 and fungicide controls.
# Fruit for Monilinia fructicola and Botrytis spp. inoculation assays were carried out on sweet cherries (Prunus avium ‘Sweet Valentine’) that were picked at the harvest mature stage and sourced from the PFR Clyde Research Orchard in Central Otago on 8 Jan. 2016 for fruit based assays 1 and 2. A second harvest was carried out on 13 Jan. 2016 for fruit based assays 3 and 4.
# Each cherry was then subjected to a double wash process. Wash one consisted of 10 minutes in tap water on a rotary shaker (110 rpm) followed by a five minute wash in SDW (Wash 2). […]
# A Monilinia fructicola culture (isolate code MFGQ3), which had been originally isolated from an infected peach tree located in the Hamilton region during 1998, was used for the spray inoculation assays included in this section (Ruakura based assay). […] This stock suspension was then filtered using a 70 μm cell strainer (to remove mycelial fragments), the concentration determined using a haemocytometer and then adjusted, by dilution with SDW+Tw 80 (0.05%) to a final concentration of 1×10^4 conidia/mL. […]
# Botrytis spp. = experiment: Assay 8: wound protection of ‘Hongyang’ kiwifruit, Botrytis spp.; format: in vivo; conditions: wounded ‘Hongyang’ kiwifruit, treatment 24 h before Botrytis spp., 6 days incubation
# Protocol: The kiwifruit ‘Hongyang’-based screening assays (assays 8 and 9) were conducted in laboratories at the Plant and Food Research Ruakura Research Centre, Hamilton, New Zealand (PFR). PFR assays focused on wound application of YBCA5 treatment, a commercial biological control treatment and a fungicide were used as comparative controls.
# The ‘Hongyang’ kiwifruit were sourced from the PFR Riwaka Research Orchard in Motueka on 12 Apr. 2017 for fruit based assays 8 and 9. Penicillium spp. Phomopsis spp., Alternaria spp., Colletotrichum spp., Cryptosporiopsis spp. and Botrytis spp. inoculation assays were carried out on ‘Hongyang’ kiwifruit that were picked at the harvest mature stage. […]
# For assays 8 and 9, two sterile paper towels were placed beneath Plix cut-outs, moistened with 40 mL SDW and each fruit placed in disposable lunch boxes (Plix Extra Deep 45/45, containing five Plix fruit cut-outs to prevent fruit from moving), sealed, then placed into large (40 L) plastic bins which were closed to ensure high relative humidity for the first 24 h and incubated on the lab bench at 24° C. […] After 6 days, (Alternaria spp. Botrytis spp., Penicillium spp., Phomopsis spp., Colletotrichum spp.) and 7 days (Cryptosporiopsis spp.), the severity of fungal rot was assessed for each treatment by measuring the lesion length (mm) along the axis of the fruit. […]
smiles,measurement,setting,value
CC(C)NC(=O)N1CC(=O)N(c2cc(Cl)cc(Cl)c2)C1=O [iprodione],incidence of Monilinia fruit rot,Monilinia fructicola,22%
same,"lesion size, comparison between treatments",Botrytis spp.,significantly smaller than the untreated control
